Test results: patent US20220213092A1, “BICYCLIC PYRAZOLE BRUTON'S TYROSINE KINASE INHIBITORS” (AbbVie Inc., priority 2020, published 2022)

Key:
[1] = target: T1, BTK (Homo sapiens, UniProt Q06187); assay: BTK kinase electrophoretic mobility shift assay (MSA); format: biochemical; conditions: 50 μM ATP, 0.5 nM BTK enzyme (Nanosyn-293HEK, WT), 3 hours at 25° C.; all examples except 50, 51, 62 and 63; read-out: BTK IC50
T1 construct: purchased Nanosyn, Santa Clara, Calif; host or cells: 293HEK

[2] = target: T2, Phosphorylation of Y223 of BTK (Homo sapiens, UniProt Q06187); assay: Whole blood compound screening, phosphorylation of Y223 site of BTK (MSD assay); format: cell-based; conditions: healthy human whole blood, 2 hours at 37° C., 3 separate donors; read-out: WB BTK-pY223 EC50
T2 construct: host or cells: healthy human whole blood, 3 donors
T2 sequence (Q06187 whole entry): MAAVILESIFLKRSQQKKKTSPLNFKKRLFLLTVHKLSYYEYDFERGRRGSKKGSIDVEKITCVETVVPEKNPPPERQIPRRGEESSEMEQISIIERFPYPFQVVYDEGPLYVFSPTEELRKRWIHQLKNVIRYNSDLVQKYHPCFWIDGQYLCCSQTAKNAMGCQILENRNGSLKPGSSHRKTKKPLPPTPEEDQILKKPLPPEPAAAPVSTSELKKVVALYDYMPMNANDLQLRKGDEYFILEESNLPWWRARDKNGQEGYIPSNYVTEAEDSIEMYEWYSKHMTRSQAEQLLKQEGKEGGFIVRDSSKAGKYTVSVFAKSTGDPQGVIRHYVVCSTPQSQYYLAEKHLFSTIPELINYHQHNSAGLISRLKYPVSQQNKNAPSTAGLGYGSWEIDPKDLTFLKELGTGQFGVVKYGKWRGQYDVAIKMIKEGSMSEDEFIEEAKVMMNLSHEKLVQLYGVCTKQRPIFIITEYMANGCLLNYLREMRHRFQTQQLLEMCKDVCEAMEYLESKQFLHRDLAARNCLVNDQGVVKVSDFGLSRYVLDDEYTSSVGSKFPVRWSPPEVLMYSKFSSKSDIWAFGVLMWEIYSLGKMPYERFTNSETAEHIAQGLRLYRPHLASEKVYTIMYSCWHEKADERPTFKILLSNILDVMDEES
Method: Healthy human whole blood (WB) was collected from […]™ Technologies or […]® in sodium heparinized tubes. Whole blood was stored at ambient temperature to avoid coagulation. Each compound was tested in 3 separate donors. Compound stock solutions (10 mM) were used to generate dose titration (8 concentrations, starting concentration 10 μM, 1:4 dilution) in appropriate volume of dimethyl sulfoxide (0.2%). Whole blood was incubated with compounds in 96-well plates for 2 hours in tissue culture incubators at 37° C. under a 5% CO2 atmosphere. The whole blood was lysed in equal volume of lysis buffer (Cell Signaling Technology®, Danvers, Mass.) containing complete protease inhibitor tablet, PhosSTOP™ tablet, sodium orthovanadate and sodium fluoride and phenylmethanesulfonyl fluoride solution. The lysed whole blood was then frozen at −80° C. for overnight.
Phosphorylation of Y223 of BTK was measured using an MSD assay (Meso Scale Diagnostics, LLC, Rockville, Md.). The thawed lysed whole blood was incubated with the capturing antibody rabbit anti-human BTK (D3H5) (Cell Signaling Technology, Danvers, Mass.) at 4° C. overnight. After washing out the unbound samples, the detection antibody biotinylated rabbit anti-pY223-BTK(D9T6H) (Cell Signaling Technology®, Danvers, Mass.) was added to the plates. After washing out the unbound antibodies, SULFO-TAG Streptavidin (Meso Scale Diagnostics, LLC, Rockville, Md.) was used for detection on Meso Sector S600 (Meso Scale Diagnostics, LLC, Rockville, Md.).
The EC50 values were determined using software from Dotmatics. The activity of exemplary compounds is illustrated below.

T1 sequence (Q06187 whole entry): as above

Row | IC50 [1] [nM] | EC50 [2] [nM] | SMILES
1 | 0.735 | 92.9 | C=CC(=O)N1CCC(C2CCNc3c2nn(-c2ccc(Oc4cccc(C)c4)cc2)c3C(N)=O)CC1 (stereo not shown) [Example 24, 2-[4-(3-methylphenoxy)phenyl]-7-[1-(prop-2-enoyl)piperidin-4-yl]-4,5,6,7-tetrahydro-2H-pyrazolo[4,3-b]pyridine-3-carboxamide]
2 | 1.05 | 45.3 | C=CC(=O)N1CCC([C@H]2CCNc3c2nn(-c2ccc(Oc4ccc(F)cc4F)cc2)c3C(N)=O)CC1 [Example 30, (7R)-2-[4-(2,4-difluorophenoxy)phenyl]-7-[1-(prop-2-enoyl)piperidin-4-yl]-4,5,6,7-tetrahydro-2H-pyrazolo[4,3-b]pyridine-3-carboxamide]
3 | 0.884 | 128 | C=CC(=O)N1[C@@H]2CC[C@H]1CN(C1CCNc3c1nn(-c1ccc(Oc4ccccc4)cc1)c3C(N)=O)C2 (stereo partly drawn) [Example 35, 2-(4-phenoxyphenyl)-7-[(1R,5S)-8-(prop-2-enoyl)-3,8-diazabicyclo[3.2.1]octan-3-yl]-4,5,6,7-tetrahydro-2H-pyrazolo[4,3-b]pyridine-3-carboxamide]
4 | 1.17 | 62.5 | C=CC(=O)N1CCN(C2CCNc3c2nn(-c2ccc(Oc4ccccc4)cc2)c3C(N)=O)C[C@@H]1C (stereo partly drawn) [Example 43, 7-[(3S)-3-methyl-4-(prop-2-enoyl)piperazin-1-yl]-2-(4-phenoxyphenyl)-4,5,6,7-tetrahydro-2H-pyrazolo[4,3-b]pyridine-3-carboxamide]
5 | 15.4 | 158 | C=CC(=O)N1CCN([C@@H]2CCNc3c2nn(-c2ccc(Oc4ccc(O)cc4)cc2)c3C(N)=O)CC1 [Example 44, (7R)-2-[4-(4-hydroxyphenoxy)phenyl]-7-[4-(prop-2-enoyl)piperazin-1-yl]-4,5,6,7-tetrahydro-2H-pyrazolo[4,3-b]pyridine-3-carboxamide]
6 | 1.2 | 71.8 | C=CC(=O)N1CCN(C2CCNc3c2nn(-c2ccc(Oc4ccccc4)cc2)c3C(N)=O)CC12CC2 (stereo not shown) [Example 53, 2-(4-phenoxyphenyl)-7-[4-(prop-2-enoyl)-4,7-diazaspiro[2.5]octan-7-yl]-4,5,6,7-tetrahydro-2H-pyrazolo[4,3-b]pyridine-3-carboxamide]
7 | 1.19 | 76.7 | C=CC(=O)N1CCN(C2CCNc3c2nn(-c2ccc(Oc4ccccc4C(F)(F)F)cc2)c3C(N)=O)CC1 (stereo not shown) [Example 54, 7-[4-(prop-2-enoyl)piperazin-1-yl]-2-{4-[2-(trifluoromethyl)phenoxy]phenyl}-4,5,6,7-tetrahydro-2H-pyrazolo[4,3-b]pyridine-3-carboxamide]
8 | 1.76 | 85.9 | C=CC(=O)N1CCN(C2CCNc3c2nn(-c2ccc(Oc4cccc(F)c4)cc2)c3C(N)=O)CC1 (stereo not shown) [Example 57, 2-[4-(3-fluorophenoxy)phenyl]-7-[4-(prop-2-enoyl)piperazin-1-yl]-4,5,6,7-tetrahydro-2H-pyrazolo[4,3-b]pyridine-3-carboxamide]
9 | 1.42 | 83.4 | C=CC(=O)N1CCN([C@@H]2CCNc3c2nn(-c2ccc(Oc4ccccc4C(F)(F)F)cc2)c3C(N)=O)CC1 [Example 60, (7R)-7-[4-(prop-2-enoyl)piperazin-1-yl]-2-{4-[2-(trifluoromethyl)phenoxy]phenyl}-4,5,6,7-tetrahydro-2H-pyrazolo[4,3-b]pyridine-3-carboxamide]
10 | 5.58 | 75 | C=CC(=O)N1CCN([C@@H]2CCNc3c2nn(-c2ccc(Oc4cccc(C#N)c4)cc2)c3C(N)=O)CC1 [Example 64, (7R)-2-[4-(3-cyanophenoxy)phenyl]-7-[4-(prop-2-enoyl)piperazin-1-yl]-4,5,6,7-tetrahydro-2H-pyrazolo[4,3-b]pyridine-3-carboxamide]
11 | 0.953 | 34.2 | C=CC(=O)N1CCN([C@@H]2CCNc3c2nn(-c2ccc(Oc4cccc(C(F)(F)F)c4)cc2)c3C(N)=O)CC1 [Example 65, (7R)-7-[4-(prop-2-enoyl)piperazin-1-yl]-2-{4-[3-(trifluoromethyl)phenoxy]phenyl}-4,5,6,7-tetrahydro-2H-pyrazolo[4,3-b]pyridine-3-carboxamide]
12 | 0.737 | 18.8 | C=CC(=O)N1CCN([C@@H]2CCNc3c2nn(-c2ccc(Oc4cccc(F)c4)cc2)c3C(N)=O)CC1 [Example 67, (7R)-2-[4-(3-fluorophenoxy)phenyl]-7-[4-(prop-2-enoyl)piperazin-1-yl]-4,5,6,7-tetrahydro-2H-pyrazolo[4,3-b]pyridine-3-carboxamide]
13 | 3.18 | 96.2 | C=CC(=O)N1CCN([C@@H]2CCNc3c2nn(-c2ccc(Oc4ccccc4C4CC4)cc2)c3C(N)=O)CC1 [Example 68, (7R)-2-[4-(2-cyclopropylphenoxy)phenyl]-7-[4-(prop-2-enoyl)piperazin-1-yl]-4,5,6,7-tetrahydro-2H-pyrazolo[4,3-b]pyridine-3-carboxamide]
14 | 2.18 | 29.2 | C=CC(=O)N1CCN([C@@H]2CCNc3c2nn(-c2ccc(Oc4ccccc4C#N)cc2)c3C(N)=O)CC1 [Example 69, (7R)-2-[4-(2-cyanophenoxy)phenyl]-7-[4-(prop-2-enoyl)piperazin-1-yl]-4,5,6,7-tetrahydro-2H-pyrazolo[4,3-b]pyridine-3-carboxamide]
15 | 7.09 | 239 | C=CC(=O)N1CCN([C@@H]2CCNc3c2nn(-c2ccc(Oc4ccc(F)cc4F)cc2)c3C(N)=O)CC1 [Example 70, (7R)-2-[4-(2,4-difluorophenoxy)phenyl]-7-[4-(prop-2-enoyl)piperazin-1-yl]-4,5,6,7-tetrahydro-2H-pyrazolo[4,3-b]pyridine-3-carboxamide]
16 | 22.8 | 279 | C=CC(=O)N1CCN([C@@H]2CCNc3c2nn(-c2ccc(Oc4ccc(F)cc4)cc2)c3C(N)=O)CC1 [Example 71, (7R)-2-[4-(4-fluorophenoxy)phenyl]-7-[4-(prop-2-enoyl)piperazin-1-yl]-4,5,6,7-tetrahydro-2H-pyrazolo[4,3-b]pyridine-3-carboxamide]
17 | 7.84 | 21.7 | C=CC(=O)N1C2CC1CN([C@H]1CCNc3c1nn(-c1ccc(Oc4ccccc4)cc1)c3C(N)=O)C2 [Example 72, (7S)-2-(4-phenoxyphenyl)-7-[6-(prop-2-enoyl)-3,6-diazabicyclo[3.1.1]heptan-3-yl]-4,5,6,7-tetrahydro-2H-pyrazolo[4,3-b]pyridine-3-carboxamide]
18 | 15.7 | 255 | C=CC(=O)N1C2CC1CN([C@@H]1CCNc3c1nn(-c1ccc(Oc4ccccc4)cc1)c3C(N)=O)C2 [Example 73, (7R)-2-(4-phenoxyphenyl)-7-[6-(prop-2-enoyl)-3,6-diazabicyclo[3.1.1]heptan-3-yl]-4,5,6,7-tetrahydro-2H-pyrazolo[4,3-b]pyridine-3-carboxamide]
19 | 1.51 | 56 | C=CC(=O)N1CCN([C@@H]2CCNc3c2nn(-c2ccc(Oc4cc(F)ccc4F)cc2)c3C(N)=O)CC1 [Example 74, (7R)-2-[4-(2,5-difluorophenoxy)phenyl]-7-[4-(prop-2-enoyl)piperazin-1-yl]-4,5,6,7-tetrahydro-2H-pyrazolo[4,3-b]pyridine-3-carboxamide]
20 | 1.14 | 61 | C=CC(=O)N1CC(N2CCNc3c2nn(-c2ccc(Oc4ccccc4F)cc2)c3C(N)=O)C1 [Example 75, 2-[4-(2-fluorophenoxy)phenyl]-7-[1-(prop-2-enoyl)azetidin-3-yl]-4,5,6,7-tetrahydro-2H-pyrazolo[3,4-b]pyrazine-3-carboxamide]
